The results in this text go back to patent publication US20080069827A1, “miRNA of HSV-LAT and uses thereof” (priority 2006, published 2008).

Assay type in all cases: cell-based
The test system of one series is HeLa cells. The series can be described thus: Apoptosis assay (AnnexinV FITC staining after cisplatin or etoposide) in HeLa cells. The note with it: cisplatin 24 h post transfection, compared to control miRNA. The procedure:
(§1) 24 hours post-transfection cells were treated with cisplatin (10 µM) or etoposide (1-100 μM), followed by staining with AnnexinV FITC (BD Biosciences). Cells showing FITC staining, loss of cell volume, loss of refractility, and membrane blebbing were scored as apoptotic. At least 500 cells were counted in each well.
(§2) 24 hours post-transfection cells were treated with cisplatin (10 μM) or etoposide ([…]), followed by staining with AnnexinV FITC (BD Biosciences). Cells showing FITC staining, loss of cell volume, loss of refractility, and membrane blebbing were scored as apoptotic. At least 500 cells were counted in each well. The data represent mean±S.D. from at least three independent experiments.

The test system of series [1] is TGF-β/SMAD-dependent transcription. The series can be described thus: SBE4-Luc TGF-β responsive reporter assay in SY5Y cells. The note with it: 10 ng/ml recombinant TGF-β1. The procedure: (§3) Cells were co-transfected with pCDNA or PstMlu (1 μg) and the respective reporter constructs (500 ng) along with pSV-βgal (10 ng). For induction of TGF-p signaling, 24 h following transfection the cells were treated with 10 ng/ml of recombinant TGF-β1 protein (R&D systems). Reporter activity was measured using a appropriate assay kits (promega).
Cells were co-transfected with pCDNA or PstMlu (1 μg) and the respective reporter constructs (500 ng) along with pSV-βgal (100 ng). For induction of TGF-β signaling, 24 h following transfection the cells were treated with 10 ng/ml of recombinant TGF-β 1 protein (R&D systems) for 12-16 hours at 37° C. in serum free media. Cells were lysed using the reporter lysis buffer (promega). Luciferase activity was measured using a renilla or firefly Luciferase assay kit (promega). β-galactosidase activity was determined in all lysates (promega) according to manufacturer's instructions. The Luciferase activity in all samples was normalized to the amount of β-galactosidase activity.
(A reporter such as luciferase makes a cellular process visible.)

The next series concerns SY5Y cells. Briefly: Apoptosis assay (AnnexinV FITC staining after cisplatin or etoposide) in SY5Y cells. The following applies: cisplatin 24 h post transfection, compared to control. As to the method:
as §1, §2

A further series relates to 3′UTR of TGF-β. The series can be described thus: Renilla luciferase reporter with 3′UTR / mirLAT target site of TGF-β in SY5Y cells. The procedure: as §3
(§4) SY5Y cells were maintained in RPMI medium with 10% fetal calf serum and antibiotics. HeLa cells were grown in DMEM medium supplemented with 5% fetal calf serum and antibiotics. Plasmids having the PstMlu fragment of LAT and its deletion mutant ΔSty have been described. GFP-shRNA pSilencer plasmid was a kind gift from Dr Kuan-Teh Jeang, NIH, USA. The SBE4-Luc construct was a kind gift from Dr Anita Roberts, NIH, USA. The pGL3-control and pSV-βgal plasmids were obtained from Promega. The pRL-TK vector was obtained from Dr Zissimos Mourelatos, University of Pennsylvannia, USA. […] Recombinants were scored for reversion of deletion in ΔSty resulting in virus which is genetically similar to wild type virus. […]
(§5) Cells were co-transfected with pCDNA or PstMlu (1 μg) and the respective reporter constructs (500 ng) along with pSV-βgal (100 ng). […] Luciferase activity was measured using a renilla or firefly Luciferase assay kit (promega). β-galactosidase activity was determined in all lysates (promega) according to manufacturer's instructions. […]

A further series has as its system 3′UTR of SMAD-3. The series can be described thus: Renilla luciferase reporter with 3′UTR / mirLAT target site of SMAD-3 in SY5Y cells. The procedure:
as §3, §4, §5

For a further series, the system named is TGF-β. Briefly: TGF-β expression (RT-PCR, latent TGF-β1 ELISpot). The following applies: SY5Y cells. As to the method:
(§6) RNA was isolated using Trizol reagent (Invitrogen). RNA was reverse transcribed using Superscript II RT enzyme (Invitrogen). Northern blot analysis of 50-60 μg total RNA was done as described previously. Western blot analysis was performed on whole cell lysates using Dicer polyclonal antibody and β-actin antibody (Amersham). SMAD-3 and TGF-β receptor I antibodies were from Abcam.
(§7) RNA was isolated using Trizol reagent according to the manufacturer's instruction. RNA was reverse transcribed using Superscript II RT enzyme (Invitrogen). Dicer, TGF-β 1, SMAD-3, TGF-β receptor I and GAPDH cDNA were amplified using gene specific primers. Northern blot analysis of 50-60 μg total RNA was done. Radioactive probes were generated using Starfire oligonucleotide labeling system (IDT). Western blot analysis was performed on whole cell lysates using Dicer polyclonal antibody, a kind gift from Dr Ramin Shiekhattar, Wistar Institute, Philadelphia, USA and β-actin antibody (Amersham). SMAD-3 and TGF-β receptor I antibodies were from Abcam. […] Synthetic RNA molecule corresponding to the mirLAT pre-miRNA (Dhramacon) was radiolabelled by polynucleotide kinase reaction (Invitrogen), column purified and incubated with 2 U Recombinant Dicer enzyme (Stratagene) at 37° C. for 16 hours and analyzed by gel electrophoresis and exposure to a phosphor imager screen.

The subject of another series is SMAD-3. Briefly: SMAD-3 expression (RT-PCR, Western blot). The following applies: SY5Y cells. The procedure: as §6, §7
The mark [2] stands for this setting: mutant target site that disrupts mirLAT binding.
[3] abbreviates: single copy of wild-type mirLAT target site.

Turning to 5′-GUGGCGGCCCGGCCCGGGGCCTT-3′ [mirLAT], the “cisplatin-induced apoptosis (percentage apoptosis)” value with HeLa cells and with SY5Y cells was “significant reduction in apoptosis” each time. Also, the “TGF-β mediated induction of SBE4-Luc reporter” value in series [1] is reported as “significant reduction in TGF-β mediated induction”. In the series on 3′UTR of TGF-β (setting [2]), the “luciferase activity, mutant TGF-β target site construct” value is recorded as “does not show any significant decrease in luciferase activity”. The “reduction in luciferase activity, wild-type TGF-β target site construct” value in the series on 3′UTR of TGF-β (setting [3]) is reported as “up to 90%”. In the series on 3′UTR of SMAD-3 (setting [2]), the “luciferase activity, mutant SMAD-3 target site construct” value is reported as “does not show any significant decrease in luciferase activity”. For the same substance, the “reduction in luciferase activity, wild-type SMAD-3 target site construct” value with 3′UTR of SMAD-3 (setting [3]) is given as “up to 90%”.

As to “CCAACUAUUGCUUCAGCUCTT (chemistry not given here) [TGF-β siRNA, siRNA directed against TGF-β (Ambion)]”, the “mRNA levels / expression of TGF-β” value with TGF-β was “inhibited”. The “cisplatin-induced apoptosis (percentage apoptosis)” value with SY5Y cells is “confers resistance to apoptosis”.

As for “GCACAUAAUAACUUGGACCTT (chemistry not given here) [SMAD-3 siRNA, siRNA directed against SMAD-3 (Ambion)]”, the “cisplatin-induced apoptosis (percentage apoptosis)” value in the series on SY5Y cells was “confers resistance to apoptosis”. Also, the “mRNA levels / expression of SMAD-3” value with SMAD-3 is “inhibited”.
